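Tested at 5 concentrations; 48 h exposure; 96-well plates; endpoints linearly interpolated, else capped at highest concentration. The concentration for 50% growth inhibition is given as GI50. TGI: concentration producing complete growth inhibition.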

We go through 15 molecules from PubChem BioAssay (NCI).

Test systems include U251 CNS; RXF 393 renal; SK-MEL-28 melanoma; M14 melanoma; SW-620 colon; KM12 colon; IGROV1 ovarian; NCI-H23 lung; UACC-257 melanoma.
Holding throughout (assay): DTP human tumour cell line panel, 48 h

As for `O=[N+]([O-])c1ccc2c(c1)OCCOCCOc1ccc([N+](=O)[O-])cc1OCCOCCO2`, the TGI with U251 CNS, in the experiment on RXF 393 renal, with SK-MEL-28 melanoma, with M14 melanoma, in the experiment on SW-620 colon and in the experiment on KM12 colon was above 100 µM in each case. For the same molecule, the total growth inhibition concentration (TGI) with IGROV1 ovarian, in the experiment with NCI-H23 lung and in the experiment on UACC-257 melanoma was above 100 µM throughout.

Take `O=C1C(c2ccc(Cl)cc2)=[N+]([O-])c2ccccc21`: the TGI in the experiment on U251 CNS was 31.5 µM; in the experiment with RXF 393 renal, 23 µM; with SK-MEL-28 melanoma, 28.5 µM; in the experiment with M14 melanoma, 27.7 µM; in the experiment on SW-620 colon it was 62.1 µM; in the experiment on KM12 colon it was 29.7 µM. Moreover, the TGI in the experiment on IGROV1 ovarian stood at 33.9 µM; in the experiment with NCI-H23 lung, 31.2 µM; with UACC-257 melanoma, 30.3 µM.

Turning to `O=C(c1ccccc1)c1ccc2cccc(O)c2n1`, the concentration for total growth inhibition (TGI) with U251 CNS is 68.3 µM; with RXF 393 renal it was 69 µM; with SK-MEL-28 melanoma, above 100 µM; in the experiment on M14 melanoma, 28 µM; in the experiment on SW-620 colon it was 32.4 µM; in the experiment on KM12 colon it was above 100 µM. Also, the TGI in the experiment with IGROV1 ovarian and in the experiment on NCI-H23 lung was above 100 µM in each case.

As to `CC(C)(C)c1ccc(Oc2ccc(C#N)c(C#N)c2)c(C(C)(C)C)c1`, the TGI in the experiment on U251 CNS was above 100 µM; with RXF 393 renal, above 95.7 µM; with SK-MEL-28 melanoma it was above 100 µM; in the experiment with M14 melanoma, above 100 µM; in the experiment on SW-620 colon it was above 100 µM; in the experiment with KM12 colon it was above 100 µM. Moreover, the TGI in the experiment on IGROV1 ovarian, in the experiment on NCI-H23 lung and in the experiment on UACC-257 melanoma was above 100 µM each time.

Take `Cc1ccc(C)c(NC(=O)CC2C(=O)Nc3ccccc3S2(=O)=O)c1` (stereo not given): the TGI in the experiment on U251 CNS was above 100 µM; in the experiment with RXF 393 renal, 49.6 µM; in the experiment with SK-MEL-28 melanoma it was above 100 µM; in the experiment on M14 melanoma, above 100 µM; in the experiment with SW-620 colon, above 100 µM; with IGROV1 ovarian, above 100 µM. For the same molecule, the TGI in the experiment on NCI-H23 lung and in the experiment on UACC-257 melanoma was above 100 µM in each case.

Take `Cc1cc(N(CCC#N)CCC#N)ccc1N=Nc1ccccc1[N+](=O)[O-]`: the TGI in the experiment with U251 CNS, in the experiment with RXF 393 renal, in the experiment with SK-MEL-28 melanoma, with M14 melanoma, in the experiment with SW-620 colon and in the experiment with KM12 colon was above 100 µM in each case. Further, the TGI with IGROV1 ovarian, with NCI-H23 lung and with UACC-257 melanoma was above 100 µM throughout.

On to `COC(=O)C/C(C)=C/[C@@H](O)[C@H]1O[C@@H]2CC/C(Cl)=C/C/C=C(/C)[C@H](OC(C)=O)CC(=O)O[C@@H]1C2`, for which the GI50 was 4.55 µM in the experiment on U251 CNS; 2.34 µM in the experiment with RXF 393 renal; 1.04 µM with SK-MEL-28 melanoma; 19.1 µM in the experiment with SW-620 colon; 2.64 µM with KM12 colon; 1.68 µM in the experiment with IGROV1 ovarian. In addition, the GI50 in the experiment with NCI-H23 lung is 1.14 µM; with UACC-257 melanoma it was 2.92 µM. The TGI in the experiment with U251 CNS is 13.2 µM; in the experiment with RXF 393 renal, 9.23 µM; with SK-MEL-28 melanoma, 5.75 µM; in the experiment on SW-620 colon, above 25 µM; in the experiment on KM12 colon it was 9.63 µM; in the experiment on IGROV1 ovarian, 15.7 µM. Moreover, the results for the TGI with NCI-H23 lung and with UACC-257 melanoma were 7.74 µM and 7.92 µM, respectively.

As for `COc1cccc(/C=C\c2cc(OC)c(OC)c(OC)c2)c1`, the concentration for total growth inhibition (TGI) in the experiment on U251 CNS is 23 µM; with SK-MEL-28 melanoma it was 7.15 µM; with M14 melanoma, above 100 µM; with SW-620 colon, above 100 µM; in the experiment with KM12 colon it was above 100 µM; in the experiment on IGROV1 ovarian, above 100 µM. Also, the TGI with NCI-H23 lung was 9.4 µM; in the experiment with UACC-257 melanoma, 47.3 µM.

In the case of `COC(=O)[C@H](C)[C@H]1CC[C@@](C)([C@H]2CC3C(C)(C)[C@H]4CCC(C)=C[C@H]4C[C@@]3(C)O2)OO1` (stereo not given in full), the concentration for total growth inhibition (TGI) with U251 CNS was found to be 26.1 µM; in the experiment with SK-MEL-28 melanoma, 31 µM; with M14 melanoma it was 25.8 µM; with SW-620 colon, 27 µM; in the experiment on KM12 colon, 25.7 µM; in the experiment with IGROV1 ovarian it was 11.1 µM. The TGI stood at 23.6 µM with NCI-H23 lung and 27.5 µM in the experiment with UACC-257 melanoma.

For the molecule `COc1ccc(/C=C\c2cc(OC)c(OC)c(OC)c2)cc1NC(=O)[C@@H](N)CO`, the GI50 was 0.0165 µM in the experiment with U251 CNS; below 0.01 µM in the experiment on RXF 393 renal; 0.0123 µM in the experiment with M14 melanoma; 0.027 µM in the experiment on SW-620 colon; below 0.0129 µM with KM12 colon; 0.0273 µM with IGROV1 ovarian. The GI50 was 0.033 µM with NCI-H23 lung and 27.1 µM in the experiment with UACC-257 melanoma. The TGI is above 100 µM in the experiment with U251 CNS; 26.7 µM with RXF 393 renal; above 100 µM with M14 melanoma; above 100 µM in the experiment with SW-620 colon; above 100 µM with KM12 colon; above 92.6 µM in the experiment with IGROV1 ovarian. For the same molecule, the TGI in the experiment with NCI-H23 lung and with UACC-257 melanoma was above 100 µM throughout.

With `COC1CCC2C(=O)CCCC2O1` (stereo not given), the total growth inhibition concentration (TGI) with U251 CNS, in the experiment on RXF 393 renal, in the experiment on M14 melanoma, with SW-620 colon, with KM12 colon and in the experiment on IGROV1 ovarian was above 100 µM each time. The concentration for total growth inhibition (TGI) in the experiment on NCI-H23 lung and with UACC-257 melanoma was above 100 µM throughout.

As to `CCCCCCC(O)C/C=C/CCCCCC/C(C(=O)OC)=C(/O)C(=O)OCC` (stereo not given), the TGI with U251 CNS, in the experiment on SK-MEL-28 melanoma, in the experiment with M14 melanoma, in the experiment with SW-620 colon, with KM12 colon and with IGROV1 ovarian was above 100 µM each time. The total growth inhibition concentration (TGI) in the experiment on NCI-H23 lung and with UACC-257 melanoma was above 100 µM throughout.

`O=C(Nc1ccccc1)O/N=C1/CCCC/C1=C\c1ccccc1`: the TGI with U251 CNS was determined as 30.2 µM; in the experiment with RXF 393 renal it was 32 µM; in the experiment with SK-MEL-28 melanoma it was 31.8 µM; in the experiment with M14 melanoma it was 32.8 µM; in the experiment on SW-620 colon, 29.9 µM; in the experiment on IGROV1 ovarian it was 17.7 µM. In addition, the TGI was 48.8 µM with NCI-H23 lung and 35.1 µM in the experiment on UACC-257 melanoma.

With `O=C(Nc1cccc(C2=NCCN2)c1)c1ccc(OCCCOc2ccc(C(=O)Nc3cccc(C4=NCCN4)c3)cc2)cc1`, in the experiment on RXF 393 renal, the GI50 is 5.78 µM and the total growth inhibition concentration (TGI) was above 100 µM. In addition, in the experiment with M14 melanoma, the GI50 is 2.88 µM and the concentration for total growth inhibition (TGI) was above 100 µM.

As to `CN(OC(=O)CC(=O)c1ccccc1)C(=O)Cc1ccccc1`, the TGI in the experiment on U251 CNS, in the experiment with M14 melanoma, in the experiment on SW-620 colon, with KM12 colon, with IGROV1 ovarian and in the experiment with NCI-H23 lung was above 100 µM in each case. In addition, the TGI in the experiment with UACC-257 melanoma was above 100 µM.

Usually TGI stands for the concentration giving total growth inhibition. Read a high TGI as lower sensitivity of the cells. By GI50 is commonly meant the concentration giving 50% growth inhibition.
